Measured values taken from patent publication US6617425B1, “Peptides” (Novartis AG, priority 1996, dated 2003).

Key:
[1] = pharmacokinetics after intravenous administration to rats; conditions: in vivo, rat
Description: The above compound is also administered intravenously to rats and found to have a relatively long terminal half life in blood of about 10 hours, with a systemic clearance of about 15 ml/min/kg and a volume of distribution of about 2 l/kg. It appears therefore that the relatively low oral bioavailability of the compound is due to low absorption from the gastrointestinal tract.

[2] = oral bioavailability in the rat; conditions: in vivo, read-out: absolute oral bioavailabilty
Description: The oral bioavailability of a model β-peptide according to the invention, β-HAla-β-HLys-β-HAla-β-HLeu-β-HLys-β-HAla-β-HLeu, TFA salt is determined in the rat using standard procedures. The absolute oral bioavailabilty is found to be about 1%. It is to be expected that greater oral bioavailability may be seeen with other compounds of the invention, having substituents selected to improve this property.

CC(C)C[C@@H](CC(=O)O)NC(=O)C[C@H](C)NC(=O)C[C@H](CCCCN)NC(=O)C[C@H](CC(C)C)NC(=O)C[C@H](C)NC(=O)C[C@H](CCCCN)NC(=O)C[C@H](C)N [β-HAla-β-HLys-β-HAla-β-HLeu-β-HLys-β-HAla-β-HLeu]
half-life ([1]; blood, read-out: terminal half life in blood (converted)): ~10 h | clearance ([1]; read-out: systemic clearance): ~15 mL/min/kg | Vd ([1]; read-out: volume of distribution): ~2 L/kg | bioavailability [2]: ~1%
